Earlier results in patent US11369597B2, “Methods for treating pancreatic cancer using combination therapies” (Ipsen Biopharm Ltd., priority 2012, dated 2022).
Like-named read-outs stand apart in the source and are kept apart here. Each block holds one molecule with its values, some of them ahead of it.

Legend:
[1] = metabolite formed by carboxylesterases
[2] = for incidence of grade 4 neutropenia: 350 mg/m^2 once every-3-weeks
[3] = test system: advanced pancreatic cancer; conditions: first-line
[4] = test system: advanced and metastatic pancreatic adenocarcinoma

SMILES: CCc1c2c(nc3ccc(O)cc13)-c1cc3c(c(=O)n1C2)COC(=O)[C@]3(O)CC [SN-38]
SN-38 more active than irinotecan [1]: 100-1000 fold

grade 4 neutropenia ([2]; patients homozygous for the wild-type allele (UGT1A1 6/6 genotype)): no grade 4 neutropenia was observed
SMILES: CCc1c2c(nc3ccc(OC(=O)N4CCC(N5CCCCC5)CC4)cc13)-c1cc3c(c(=O)n1C2)COC(=O)[C@]3(O)CC [irinotecan, 7-ethyl-10-[4-(1-piperidino)-1-piperidino] carbonyloxycampothecin]
incidence of grade 4 neutropenia ([2]; patients heterozygous (UGT1A1 6/7 genotype)): 12.5% | incidence of grade 4 neutropenia ([2]; patients homozygous for the UGT1A1*28 allele): 50%

SMILES: Nc1ccn([C@@H]2O[C@H](CO)[C@@H](O)C2(F)F)c(=O)n1 [gemcitabine]
1-year survival rate [3]: 17% | median survival [3]: 5.9 months | median overall prolongation of survival ([4]; second line after 5-fluorouracil): 3.9 months | 1-year survival rate ([4]; single-agent, first-line): about 20%
